Source: patent EP4417607A1, “HETEROCYCLIC COMPOUND AS SOS1 INHIBITOR AND USES THEREOF” (Nanjing Zaiming Pharmaceutical Co., Ltd., priority 2021, dated 2023)

What was measured:
[1] = test system: H358 cells; test: H358 cell proliferation inhibition (CellTiter-Glo luminescent cell viability assay); type: cell-based; details: Homo sapiens, NCI-H358, 168 h, 7 days
Method in brief: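 H358 cells seeded at 3000 cells/well in RPMI1640/10% FBS, treated with compound for 7 days at 37 °C/5% CO2. Viability read by CellTiter-Glo 3D luminescence, normalised to cell-free (100%) and compound-free (0%) controls; IC50 fitted from 8 concentrations by four-parameter curve.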

[2] = Plasma protein binding rate by equilibrium dialysis; type: in vitro ADME; details: CD-1 mouse plasma, 1 µM compound, 6 h dialysis at 37 °C
Protocol: • 1. CD-1 mouse plasma (BioIVT) • 2. 96-well equilibrium dialysis plate (HTDialysis LLC, Gales Ferry, CT, HTD96B) and equilibrium dialysis membrane (MWCO 12-14K, #1101) • 3. Positive control compound warfarin • 4. ABI QTrap 5500 liquid chromatography-mass spectrometry system
• 1. Preparation of a buffer with a concentration of 100 mM sodium phosphate and 150 mM NaCl: an alkaline solution with a concentration of 14.2 g/L Na2HPO4 and 8.77 g/L NaCl was prepared with ultrapure water, and an acidic solution with a concentration of 12.0 g/L NaH2PO4 and 8.77 g/L NaCl was prepared with ultrapure water. The alkaline solution was titrated with the acidic solution until the pH was 7.4 to prepare a buffer with a concentration of 100 mM sodium phosphate and 150 mM NaCl. • 2. Preparation of a dialysis membrane: the dialysis membrane was soaked in ultrapure water for 60 min to separate the membrane into two pieces, then soaked with 20% ethanol for 20 min, and finally soaked with dialysis buffer for 20 min. • 3. Preparation of plasma: the frozen plasma was quickly thawed at room temperature and then centrifuged at 3,220 g at 4 °C for 10 min to remove clots, and the supernatant was collected to a new centrifuge tube. The pH of the plasma was measured and recorded. The plasma with pH 7-8 was used. • 4. Preparation of a plasma sample containing the compound: A 10 mM stock solution of the compound or the positive control compound was diluted with DMSO to give a 200 µM working solution. 3 µL of 200 µM of the compound working solution was added to 597 µL of mouse plasma to give a plasma sample with a final concentration of 1 µM. • 5. Equilibrium dialysis procedures: a dialysis device was assembled according to the instructions. […]
The peak areas of the compound on the buffer side and the plasma side were measured. The plasma protein binding rate of the compound was calculated by the following formula: [formula] %Binding rate = 1−%Free rate [formula]
All data were calculated by Microsoft Excel software. […]

Row | SMILES | IC50 [1] [nM] | %Binding rate [2] [%]
1 | COc1c(=O)n(N2CCOCC2)cc2c(N[C@H](C)c3cccc(C(F)F)c3F)nc(C)nc12 [Example 20, (R)-4-((1-(3-(difluoromethyl)-2-fluorophenyl)ethyl)amino)-8-methoxy-2-methyl-6-morpholinepyrido[4,3-d]pyrimidine-7(6H)-one] | 98.2 | 
2 | [2H]C([2H])([2H])Oc1c(=O)n(C2(CF)CC2)cc2c(N[C@H](C)c3cccc(C(F)F)c3F)nc(C)nc12 [Example 23, (R)-4-((1-(3-(difluoromethyl)-2-fluorophenyl)ethyl)amino)-6-(1-(fluoromethyl)cyclopropyl)-8-(methoxy-d3)-2-methylpyrido[4,3-d]pyrimidine-7(6H)-one] | 118 | 91.3
3 | Cc1nc(N[C@H](C)c2cccc(C(F)F)c2F)c2cn(C3(CF)CC3)c(=O)c(N3CCOCC3)c2n1 [Example 34, (R)-4-((1-(3-(difluoromethyl)-2-fluorophenyl)ethyl)amino)-6-(1-(fluoromethyl)cyclopropyl)-2-methyl-8-morpholinylpyrido[4,3-d]pyrimidine-7(6H)-one] | 12.3 | 
4 | Cc1nc(N[C@H](C)c2cccc(C(F)F)c2F)c2cn(C3(CF)CC3)c(=O)c(N3CCOC[C@@H]3C)c2n1 [Example 40, 4-(((R)-1-(3-(difluoromethyl)-2-fluorophenyl)ethyl)amino)-6-(1-(fluoromethyl)cyclopropyl)-2-methyl-8-((S)-3-methylmorpholine)pyrido[4,3-d]pyrimidine-7(6H)-one] | 14.2 | 92.9
5 | [2H][C@](C)(Nc1nc(C)nc2c(N3CCOCC3)c(=O)n(C3(CF)CC3)cc12)c1cccc(C(F)F)c1F [Example 55, (R)-4-((1-(3-(difluoromethyl)-2-fluorophenyl)ethyl-1-d)amino)-6-(1-(fluoromethyl)cyclopropyl)-2-methyl-8-morpholinylpyrido[4,3-d]pyrimidine-7(6H)-one] | 24.3 | 95.7
